Data on 28 molecules can be found in the supplement of paper PMC6965134.

This data set in a line: TIMS collisional cross section (CCS, N2) of the lipid ion; higher = larger ion cross section. The note with it: ionization mode: negative, one isomer drawn. On the procedure:
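Lipid extracts of human plasma (NIST SRM 1950), mouse liver or HeLa cells were separated by nanoflow C18 LC (30 min gradient) and analysed by TIMS-PASEF on a timsTOF Pro. Ion mobility was calibrated with the Agilent tuning mix (negative mode ions) and converted to collisional cross sections (Mason–Schamp, N2).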

± gives the standard deviation of the averaged measurements.
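Further: lipids from MTBE extraction, five replicate injections per sample, 100 ms TIMS ramp spanning 0.6–1.95 Vs/cm², lipid identity assigned from PASEF MS/MS spectra.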

For the molecule `CCCCCCCCCCCCCCCC(=O)OC[C@@H](O)COP(=O)(O)OCCN` [LPE 16:0_0:0], the “TIMS collisional cross section” value was 207.4 Å² (sample type: Human plasma, ion (formula + adduct): [C21H44NO7P-CH3] 1-); 214 ± 5.5 Å² (sample type: Human plasma, ion (formula + adduct): [C21H44NO7P-H] 1-); 219.47 ± 10 Å² (sample type: Mouse Liver, ion (formula + adduct): [C21H44NO7P-H] 1-).
Turning to `CC/C=C\C/C=C\C/C=C\C/C=C\C/C=C\CCCC(=O)OC[C@H](COP(=O)(O)OCCN)OC(=O)CCCCCCCCCCCCCCC` [PE 20:5_16:0], the “TIMS collisional cross section” value (sample type: Human plasma, ion (formula + adduct): [C41H72NO8P-H] 1-) was determined as 269.4 Å² and the “TIMS collisional cross section” value (sample type: Mouse Liver, ion (formula + adduct): [C41H72NO8P-H] 1-) came to 269.4 Å².
In the case of `CC/C=C\C/C=C\C/C=C\C/C=C\C/C=C\C/C=C\CCC(=O)O[C@H](CO/C=C\CCCCCCCCCCCCCCCC)COP(=O)(O)OCCN` [PE P- 18:0@_22:6], where the note is “sample type: Human plasma, ion (formula + adduct): [C45H78NO7P-CH3] 1-”, the “TIMS collisional cross section” value amounted to 276.8 Å².
Turning to `CCCCC/C=C\C/C=C\C/C=C\C/C=C\CCCC(=O)O[C@H](COC(=O)CCCC/C=C\C/C=C\C/C=C\CCCCC)COP(=O)([O-])OCC[N+](C)(C)C` [PC 18:3@_20:4], the “TIMS collisional cross section” value is reported as 296 Å² (sample type: Mouse Liver, ion (formula + adduct): [C46H78NO8P+HCOO] 1-) and 277.2 Å² (sample type: Mouse Liver, ion (formula + adduct): [C46H78NO8P-CH3] 1-).
Turning to `CCCCCCCC/C=C\CCCCCCCC(=O)O[C@H](COCCCCCCCCCCCCCC)COP(=O)([O-])OCC[N+](C)(C)C` [PC O- 14:0@_18:1], where the note is “sample type: Human plasma, ion (formula + adduct): [C40H80NO7P+HCOO] 1-”, the “TIMS collisional cross section” value worked out at 286.1 Å².
On to `CCCCC/C=C\C/C=C\C/C=C\CCCCCCC(=O)O[C@H](CO/C=C\CCCCCCCCCCCCCC)COP(=O)(O)OCCN` [PE P- 16:0@_20:3], for which the “TIMS collisional cross section” value was found to be 271.2 Å² (sample type: Human plasma, ion (formula + adduct): [C41H76NO7P-H] 1-) and 271.2 Å² (sample type: Mouse Liver, ion (formula + adduct): [C41H76NO7P-H] 1-).
Take `CC/C=C\C/C=C\C/C=C\C/C=C\C/C=C\C/C=C\CCC(=O)O[C@H](COC(=O)CCCCCCCCCCCCCC)COP(=O)(O)OCCN` [PE 15:0_22:6]: the “TIMS collisional cross section” value (sample type: Mouse Liver, ion (formula + adduct): [C42H72NO8P-H] 1-) came out at 271.6 Å².
Regarding `CC/C=C\C/C=C\C/C=C\C/C=C\C/C=C\C/C=C\CCC(=O)OC(COC(=O)CCCCCCCCCCCCCCCCC)COP(=O)(O)OCCN` (stereo not given) [PE 18:0_22:6], the “TIMS collisional cross section” value (sample type: Human plasma, ion (formula + adduct): [C45H78NO8P-H] 1-) came out at 281.8 Å².
Consider `CC/C=C\C/C=C\C/C=C\C/C=C\C/C=C\C/C=C\CCC(=O)OC[C@H](COP(=O)(O)OCCN)OC(=O)CCCCCCC/C=C\C/C=C\CCCCC` [PE 22:6_18:2], for which the “TIMS collisional cross section” value (sample type: Mouse Liver, ion (formula + adduct): [C45H74NO8P-H] 1-) stood at 276.6 Å².
In the case of `CC/C=C\C/C=C\C/C=C\C/C=C\C/C=C\CCCC(=O)O[C@H](COCCCCCCCCCCCCCCCC)COP(=O)(O)OCCN` [PE O- 16:0@_20:5], the “TIMS collisional cross section” value (sample type: Human plasma, ion (formula + adduct): [C41H74NO7P+AcO] 1-) is reported as 280.1 Å².
Take `CCCC/C=C\CCCCCCCC(=O)OC[C@H](COP(=O)([O-])OCC[N+](C)(C)C)OC(=O)CCC/C=C\C/C=C\C/C=C\C/C=C\CCCCC` [PC 14:1@_20:4]: where the note is “sample type: Human plasma, ion (formula + adduct): [C42H74NO8P-CH3] 1-”, the “TIMS collisional cross section” value is on record as 268.8 Å².
On to `CCCCC/C=C\C/C=C\C/C=C\CCCCCCC(=O)OC[C@H](COP(=O)(O)OC[C@H](N)C(=O)O)OC(=O)CCCCCCCCCCCCCCCCC` [PS 20:3_18:0], for which the “TIMS collisional cross section” value (sample type: Mouse Liver, ion (formula + adduct): [C44H80NO10P-H] 1-) is recorded as 286.4 Å².
`CCCCC/C=C\CCCCCCCC(=O)OC[C@H](COP(=O)([O-])OCC[N+](C)(C)C)OC(=O)CCCCCCCCC/C=C\CCCCCCCC` [PC 15:1@_20:1]: the “TIMS collisional cross section” value (sample type: Mouse Liver, ion (formula + adduct): [C43H82NO8P-H] 1-) is recorded as 279.1 Å².
In the case of `CCCCCCCCCCCCCCCC(=O)OC[C@@H](O)COP(=O)([O-])OCC[N+](C)(C)C` [LPC 16:0_0:0], the “TIMS collisional cross section” value reads like this: (sample type: Human plasma, ion (formula + adduct): [C24H50NO7P+Cl] 1-) 234.8 Å²; (sample type: Human plasma, ion (formula + adduct): [C24H50NO7P+HCOO] 1-) 238.02 ± 0.4 Å²; (sample type: Human plasma, ion (formula + adduct): [C24H50NO7P-CH3] 1-) 218.1 Å²; (sample type: Mouse Liver, ion (formula + adduct): [C24H50NO7P+HCOO] 1-) 241.2 ± 5.1 Å²; (sample type: Mouse Liver, ion (formula + adduct): [C24H50NO7P-CH3] 1-) 218.7 Å².
For `CC/C=C\C/C=C\C/C=C\C/C=C\C/C=C\CCCC(=O)O[C@H](CO/C=C\CCCCCCCCCCCCCC)COP(=O)(O)OCCN` [PE P- 16:0@_20:5], the “TIMS collisional cross section” value is, setting by setting: (sample type: Human plasma, ion (formula + adduct): [C41H72NO7P+AcO] 1-) 283.1 Å²; (sample type: Human plasma, ion (formula + adduct): [C41H72NO7P-H] 1-) 268.9 Å².
As for `CCCCC/C=C\C/C=C\C/C=C\C/C=C\CCCCCC(=O)OC[C@@H](O)COP(=O)(O)OCCN` [LPE 22:4_0:0], the “TIMS collisional cross section” value reads like this: (sample type: Human plasma, ion (formula + adduct): [C27H48NO7P-H] 1-) 223.5 Å²; (sample type: Mouse Liver, ion (formula + adduct): [C27H48NO7P-H] 1-) 222.9 Å².
In the case of `CCCCCC/C=C\CCCCCCCC(=O)OC[C@H](COP(=O)(O)OCCN)OC(=O)CCCCCCCCCCCCCCC` [PE 16:1_16:0], the “TIMS collisional cross section” value worked out at 261.6 Å² (sample type: Human plasma, ion (formula + adduct): [C37H72NO8P-H] 1-) and 261.6 Å² (sample type: Mouse Liver, ion (formula + adduct): [C37H72NO8P-H] 1-).
`CCCC/C=C/C=C/C=C/CCCCCCCC(=O)OC[C@H](COP(=O)([O-])OCC[N+](C)(C)C)OC(=O)CCCCCCC/C=C/C=C/C=C/CCCC` [PC 18:3_18:3]: the “TIMS collisional cross section” value (sample type: Mouse Liver, ion (formula + adduct): [C44H76NO8P+HCOO] 1-) was found to be 289.8 Å².
For `CCCCC/C=C\C/C=C\CCCCCCCC(=O)OC(COC(=O)CCCCCCCCCCCCCCC)COP(=O)(O)OCCN` (stereo not given) [PE 16:0_18:2], the “TIMS collisional cross section” value by setting is: (sample type: Human plasma, ion (formula + adduct): [C39H74NO8P-H] 1-) 266.6 Å²; (sample type: Mouse Liver, ion (formula + adduct): [C39H74NO8P-H] 1-) 266.6 Å².
Take `CCCCCCCC/C=C\CCCCCCCC(=O)OC[C@H](COP(=O)(O)OC[C@H](N)C(=O)O)OC(=O)CCCCCCCCCCCCCCCCC` [PS 18:1_18:0]: the “TIMS collisional cross section” value (sample type: Mouse Liver, ion (formula + adduct): [C42H80NO10P-H] 1-) is on record as 284.2 Å².
As to `CC/C=C\C/C=C\C/C=C\C/C=C\CCCCC(=O)O[C@H](COC(=O)CCCCCCCCCCCCCCC)COP(=O)([O-])OCC[N+](C)(C)C` [PC 16:0@_18:4], the “TIMS collisional cross section” value (sample type: Mouse Liver, ion (formula + adduct): [C42H76NO8P+HCOO] 1-) is given as 287.6 Å².
As to `CCCCCCCCCCCCCCCCCC/C=C\OC[C@@H](O)COP(=O)(O)OCCN` [LPE O- 20:0_0:0], the “TIMS collisional cross section” value runs as follows: (sample type: Human plasma, ion (formula + adduct): [C25H52NO6P-H] 1-) 223.9 Å²; (sample type: Mouse Liver, ion (formula + adduct): [C25H52NO6P-H] 1-) 222.7 Å².
For the molecule `CCCCCCCCCCCCCCCCCC(=O)OC[C@@H](O)COP(=O)(O)OCCN` [LPE 18:0_0:0], the “TIMS collisional cross section” value by setting is: (sample type: Human plasma, ion (formula + adduct): [C23H48NO7P-CH3] 1-) 214.1 Å²; (sample type: Human plasma, ion (formula + adduct): [C23H48NO7P-H] 1-) 218.1 Å²; (sample type: Mouse Liver, ion (formula + adduct): [C23H48NO7P-H] 1-) 217.5 ± 0.6 Å².
For `CCCCC/C=C\C/C=C\C/C=C\C/C=C\CCCC(=O)O[C@H](COC(=O)CCCCCCCCCCCCCCCC)COP(=O)([O-])OCC[N+](C)(C)C` [PC 17:0@_20:4], the “TIMS collisional cross section” value (sample type: Mouse Liver, ion (formula + adduct): [C45H82NO8P+HCOO] 1-) is 296.7 Å².
On to `CCCCC/C=C\C/C=C\C/C=C\C/C=C\CCCCCC(=O)OC[C@H](COP(=O)(O)OCCN)OC(=O)CCCCCCCCCCCCCCCCC` [PE 22:4_18:0], for which the “TIMS collisional cross section” value is, setting by setting: (sample type: Human plasma, ion (formula + adduct): [C45H82NO8P-H] 1-) 283.6 Å²; (sample type: Mouse Liver, ion (formula + adduct): [C45H82NO8P-H] 1-) 283 Å².
`CC/C=C\C/C=C\CC(O)/C=C/C=C\C/C=C\C/C=C\CCC(=O)O[C@H](COC(=O)CCCCCCCCCCCCCCC)COP(=O)(O)OCCN` (stereo not given in full) [Oxidized PE 16:0@_22:6]: under “sample type: Mouse Liver, ion (formula + adduct): [C43H74NO9P-H] 1-”, the “TIMS collisional cross section” value is listed as 279 Å².
Turning to `CCCCCCCCCCCCCCCC(=O)OCC(COP(=O)(O)OCCN)OC(=O)CCCCCCCCCCCCCCC` (stereo not given) [PE 16:0_16:0], under “sample type: Mouse Liver, ion (formula + adduct): [C37H74NO8P-H] 1-”, the “TIMS collisional cross section” value is given as 263.3 Å².
With `CCCCC/C=C\C/C=C\C/C=C\C/C=C\CCCC(=O)O[C@H](COCCCCCCCCCCCCCCCCCC)COP(=O)([O-])OCC[N+](C)(C)C` [PC O- 18:0@_20:4], the “TIMS collisional cross section” value (sample type: Human plasma, ion (formula + adduct): [C46H86NO7P+HCOO] 1-) is 299 Å².
